Consider 27 compounds from patent US10577332B2, “Tetrazole derivatives” (Hoffmann-La Roche Inc., priority 2015, dated 2020).

Each structure is given as a SMILES string.

For one data set, the target named is T1, human EAAT3 (Homo sapiens, UniProt P43005).
T1 construct: expressed in transfected cells
T1 sequence (P43005 1-524): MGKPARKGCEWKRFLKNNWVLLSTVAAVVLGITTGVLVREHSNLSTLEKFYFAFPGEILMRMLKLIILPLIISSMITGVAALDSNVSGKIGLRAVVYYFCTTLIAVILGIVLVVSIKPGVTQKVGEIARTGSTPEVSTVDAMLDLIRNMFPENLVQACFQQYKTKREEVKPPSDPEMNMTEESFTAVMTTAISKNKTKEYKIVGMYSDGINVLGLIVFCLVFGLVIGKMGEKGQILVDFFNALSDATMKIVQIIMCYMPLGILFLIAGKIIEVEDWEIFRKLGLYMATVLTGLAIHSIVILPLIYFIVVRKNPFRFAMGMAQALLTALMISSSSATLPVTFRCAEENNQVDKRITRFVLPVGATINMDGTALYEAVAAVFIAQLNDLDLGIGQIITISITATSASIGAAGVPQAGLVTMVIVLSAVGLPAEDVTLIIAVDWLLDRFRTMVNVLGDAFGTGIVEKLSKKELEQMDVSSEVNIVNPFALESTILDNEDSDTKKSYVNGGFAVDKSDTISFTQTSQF
The data set is described as follows: FLIPR Membrane Potential (FMP) assay. In kind it is cell-based. As to conditions: HEK-293 cells stably expressing human EAAT3; antagonist applied 15 min before L-glutamate at EC80; Kb by Cheng-Prusoff from IC50. The method, boiled down: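 HEK-293 cells stably expressing human EAAT3, loaded with membrane-potential dye 1 h at 37 °C in Krebs buffer pH 7.4. Antagonists added 15 min before L-glutamate at EC80; peak fluorescence minus basal read on FLIPR at room temperature. Kb derived from IC50 via Cheng-Prusoff.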

For orientation: Kb means the equilibrium dissociation constant of an antagonist, usually derived from a functional assay. A low value points to higher antagonist affinity. Broadly, the melting point is the temperature of the solid-liquid transition. In turn, `CCC(C)(C)NC(=O)c1cc(-c2ccc(F)c(C)c2)cc(-n2cnnn2)c1` [Example 6, 3-(4-Fluoro-3-methylphenyl)-N-(2-methylbutan-2-yl)-5-(tetrazol-1-yl)-benzamide] gave a melting point of 120 °C. The compound further gave an antagonist dissociation constant (Kb) at human EAAT3 of 410 nM.
For the compound `CC(C)c1nnnn1-c1cc(C(=O)NC2(C)CCS(=O)(=O)C2)cc(-c2ccc(Cl)cc2)c1` (racemic) [Example 45, (RS)-3-(4-Chlorophenyl)-N-(3-methyl-1,1-dioxothiolan-3-yl)-5-(5-propan-2-yltetrazol-1-yl)benzamide], the melting point is 73 °C. For the same compound, the Kb on human EAAT3 worked out at 260 nM.
In turn, `CCC(C)(C)NC(=O)c1cc(-c2ccc(C)c(F)c2)cc(-n2cnnn2)c1` [Example 5, 3-(3-Fluoro-4-methylphenyl)-N-(2-methylbutan-2-yl)-5-(tetrazol-1-yl)-benzamide] came in with a melting point of 161 °C. In addition, the Kb at human EAAT3 stood at 250 nM.
The matching figures for `CC(C)c1nnnn1-c1cc(C(=O)NC2(C)CCS(=O)(=O)C2)cc(-c2ccc(C(F)(F)F)cc2)c1` (racemic) [Example 49, (RS)—N-(3-methyl-1,1-dioxothiolan-3-yl)-3-(5-propan-2-yltetrazol-1-yl)-5-[4-(trifluoromethyl)phenyl]benzamide]: 117 °C and 330 nM.
The like results for `CC(C)(C)NC(=O)c1cc(-c2ccc(F)c(F)c2)cc(-n2nnnc2C(C)(C)C)c1` [Example 106, N-tert-Butyl-3-(5-tert-butyltetrazol-1-yl)-5-(3,4-difluorophenyl)-benzamide] were, in that order, 225.5 °C and 260 nM.
The like results for `CC(C)(C)NC(=O)c1cc(-c2ccc(Cl)cc2)cc(-n2nnnc2C2CC2)c1` [Example 56, N-tert-Butyl-3-(4-chlorophenyl)-5-(5-cyclopropyltetrazol-1-yl)-benzamide] were, in that order, 90 °C and 180 nM.
Compound `CC(C)(C)c1nnnn1-c1cc(C(=O)NC(C)(C)C2CC2)cc(-c2ccc(C(F)(F)F)cc2)c1` [Example 111, 3-(5-tert-Butyltetrazol-1-yl)-N-(2-cyclopropylpropan-2-yl)-5-[4-(trifluoromethyl)-phenyl]-benzamide] displayed a melting point of 95.5 °C. Also, the Kb on human EAAT3 was determined as 500 nM.
The matching figures for `CC(C)(C)c1nnnn1-c1cc(C(=O)NC(C)(C)C2CC2)cc(-c2ccc(Cl)cc2)c1` [Example 92, 3-(5-tert-Butyltetrazol-1-yl)-5-(4-chlorophenyl)-N-(2-cyclopropylpropan-2-yl)-benzamide]: 101 °C and 300 nM.
On to `CC(C)(C)c1nnnn1-c1cc(C(=O)NC(C)(C)C(F)(F)F)cc(-c2ccc(Cl)cc2)c1` [Example 93, 3-(5-tert-Butyltetrazol-1-yl)-5-(4-chlorophenyl)-N-(1,1,1-trifluoro-2-methylpropan-2-yl)-benzamide], for which the melting point stood at 218.5 °C. The same compound displayed a Kb on human EAAT3 of 260 nM.
The like results for `Cc1ccc(-c2cc(C(=O)NC(C)(C)C(F)(F)F)cc(-n3nnnc3C3CC3)c2)cc1` [Example 25, 3-(5-Cyclopropyltetrazol-1-yl)-5-(4-methylphenyl)-N-(1,1,1-trifluoro-2-methylpropan-2-yl)-benzamide] were, in that order, 82 °C and 270 nM.
On to `CC(C)(CO)NC(=O)c1cc(-c2ccc(Cl)cc2)cc(-n2cnnn2)c1` [Example 15, 3-(4-Chlorophenyl)-N-(1-hydroxy-2-methylpropan-2-yl)-5-(tetrazol-1-yl)-benzamide], for which the melting point was 137 °C. This compound also came in with a Kb on human EAAT3 of 800 nM.
In turn, `CC(C)(NC(=O)c1cc(-c2ccc(F)cc2)cc(-n2nnnc2C2CC2)c1)C1CC1` [Example 72, N-(2-Cyclopropylpropan-2-yl)-3-(5-cyclopropyltetrazol-1-yl)-5-(4-fluorophenyl)-benzamide] returned a melting point of 73 °C. The same compound showed a Kb on human EAAT3 of 380 nM.
The matching figures for `CC(C)c1nnnn1-c1cc(C(=O)NC2(C)CCS(=O)(=O)C2)cc(-c2ccc(F)cc2)c1` (racemic) [Example 63, (RS)-3-(4-Fluorophenyl)-N-(3-methyl-1,1-dioxothiolan-3-yl)-5-(5-propan-2-yltetrazol-1-yl)-benzamide]: 112.5 °C and 650 nM.
The compound `Cc1ccc(-c2cc(C(=O)NC(C)(C)C(F)(F)F)cc(-n3nnnc3C(C)C)c2)cc1` [Example 19, 3-(4-Methylphenyl)-5-(5-propan-2-yltetrazol-1-yl)-N-(1,1,1-trifluoro-2-methylpropan-2-yl)-benzamide] came in with a melting point of 79 °C. This compound had a Kb at human EAAT3 of 230 nM.
In the case of `CC(C)(NC(=O)c1cc(-c2ccc(Cl)cc2)cc(-n2nnnc2C2CC2)c1)C(F)(F)F` [Example 54, 3-(4-Chlorophenyl)-5-(5-cyclopropyltetrazol-1-yl)-N-(1,1,1-trifluoro-2-methylpropan-2-yl)-benzamide], the melting point was 91.5 °C. Further, on human EAAT3, the Kb came out at 210 nM.
Compound `CC(C)c1nnnn1-c1cc(C(=O)NC(C)(C)C(F)(F)F)cc(-c2ccc(C(F)(F)F)cc2)c1` [Example 53, 3-(5-Propan-2-yltetrazol-1-yl)-5-[4-(trifluoromethyl)-phenyl]-N-(1,1,1-trifluoro-2-methylpropan-2-yl)-benzamide] registered a melting point of 91 °C. Further, the Kb on human EAAT3 was 480 nM.
`CC1(NC(=O)c2cc(-c3ccc(F)cc3)cc(-n3nnnc3C3CC3)c2)CCS(=O)(=O)C1` (racemic) [Example 77, (RS)-3-(5-Cyclopropyltetrazol-1-yl)-5-(4-fluorophenyl)-N-(3-methyl-1,1-dioxothiolan-3-yl)-benzamide] displayed a melting point of 120 °C. The compound also gave a Kb on human EAAT3 of 250 nM.
The like results for `Cc1ccc(-c2cc(C(=O)NC(C)(C)C3CC3)cc(-n3nnnc3C(C)(C)C)c2)cc1F` [Example 115, 3-(5-tert-Butyltetrazol-1-yl)-N-(2-cyclopropylpropan-2-yl)-5-(3-fluoro-4-methylphenyl)-benzamide] were, in that order, 92 °C and 520 nM.
The matching figures for `Cc1cc(-c2cc(C(=O)NC(C)(C)C(F)(F)F)cc(-n3nnnc3C(C)(C)C)c2)ccc1F` [Example 118, 3-(5-tert-Butyltetrazol-1-yl)-5-(4-fluoro-3-methylphenyl)-N-(1,1,1-trifluoro-2-methylpropan-2-yl)-benzamide]: 203 °C and 540 nM.
The matching figures for `Cc1nnnn1-c1cc(C(=O)NC(C)(C)C(F)(F)F)cc(-c2ccc(F)cc2)c1` [Example 86, 3-(4-Fluorophenyl)-5-(5-methyltetrazol-1-yl)-N-(1,1,1-trifluoro-2-methylpropan-2-yl)-benzamide]: 86 °C and 200 nM.
As to `CC(C)(C)c1nnnn1-c1cc(C(=O)NC(C)(C)C2CC2)cc(-c2ccc(C3CC3)cc2)c1` [Example 114, 3-(5-tert-Butyltetrazol-1-yl)-5-(4-cyclopropylphenyl)-N-(2-cyclopropylpropan-2-yl)-benzamide], the melting point was found to be 95 °C. On human EAAT3, the Kb was 620 nM.
For the compound `Cc1cc(-c2cc(C(=O)NC(C)(C)C3CC3)cc(-n3nnnc3C(C)(C)C)c2)ccc1F` [Example 110, 3-(5-tert-Butyltetrazol-1-yl)-N-(2-cyclopropylpropan-2-yl)-5-(4-fluoro-3-methylphenyl)-benzamide], the melting point was found to be 88 °C. The compound further gave a Kb at human EAAT3 of 490 nM.
In turn, `CC(C)c1nnnn1-c1cc(C(=O)NC(C)(C)C(F)(F)F)cc(-c2ccc(Cl)cc2)c1` [Example 52, 3-(4-Chlorophenyl)-5-(5-propan-2-yltetrazol-1-yl)-N-(1,1,1-trifluoro-2-methylpropan-2-yl)-benzamide] had a melting point of 90 °C. Besides, the Kb on human EAAT3 worked out at 340 nM.
For the compound `CC(C)(C#N)NC(=O)c1cc(-c2ccc(Cl)c(F)c2)cc(-n2nnnc2C(C)(C)C)c1` [Example 121, 3-(5-tert-Butyltetrazol-1-yl)-5-(4-chloro-3-fluorophenyl)-N-(2-cyanopropan-2-yl)-benzamide], the melting point is 261.5 °C. Also, the Kb at human EAAT3 came to 210 nM.
`Cc1nnnn1-c1cc(C(=O)NC(C)(C)CO)cc(-c2ccc(Cl)cc2)c1` [Example 64, 3-(4-Chlorophenyl)-N-(1-hydroxy-2-methylpropan-2-yl)-5-(5-methyl-tetrazol-1-yl)-benzamide] gave a melting point of 193 °C. In addition, on human EAAT3, the Kb was 420 nM.
The matching figures for `CCC(C)(C)NC(=O)c1cc(-c2ccc(C(F)(F)F)cc2)cc(-n2nnnc2C(C)C)c1` [Example 46, N-(2-Methylbutan-2-yl)-3-(5-propan-2-yltetrazol-1-yl)-5-[4-(trifluoro-methyl)-phenyl]-benzamide]: 89 °C and 190 nM.
Consider `CC(C)c1nnnn1-c1cc(C(=O)NC(C)(C)C2CC2)cc(-c2ccc(F)cc2)c1` [Example 82, N-(2-Cyclopropylpropan-2-yl)-3-(4-fluorophenyl)-5-(5-propan-2-yltetrazol-1-yl)-benzamide], for which the melting point came to 75 °C. At human EAAT3, this compound returned a Kb of 160 nM.
